Measured values taken from a melting point compilation (Tetko et al.; mined from patent text by program, amines drawn as free bases though some values may be those of a salt).

Compound | melting point [°C]
COc1ccc(C=O)cc1CS(=O)(=O)O | 54
O=C(Nc1ccc(Oc2ccnc(N3CCCC3)n2)c2ccccc12)c1ccccc1N1CCCC(F)C1 (stereo unspecified) | 111 to 113
Cc1nc2c3c(c(CO)cn2c1C)CCC(c1ccccc1)C3 (stereo unspecified) | 290 to 292
Cn1cc(-c2ccccc2)c(=O)c(-c2ccc(Br)cc2)c1 | 172
CSc1cc(-n2ncc(-c3ccc(S(C)(=O)=O)cc3)c(-c3ccc(F)cc3)c2=O)ccc1F | 105 to 107
Oc1ccc(Br)cc1-c1nc2ccccc2s1 | 164 to 165
N#Cc1c(-c2cccc(C(=O)N3CCOCC3)c2)cc(-c2ccccc2O)nc1NC(=O)c1cccs1 | 253 to 254
Cc1cc(C(=O)OC2CC3C(=O)NC4(C(=O)NS(=O)(=O)C5CC5)CC4C=CCCCCCC(NC(=O)OC(C)(C)C)C(=O)N3C2)no1 (stereo unspecified) | 157 to 159
COC(=O)C(=O)c1ccc(OCCOc2ccc(Oc3ccccc3)cc2)cc1 | 97 to 98
Cc1ccc(C)n1C(C)c1ncccc1F (stereo unspecified) | 82 to 84
COc1cccc(S(=O)c2cccc(F)c2C#N)c1 (stereo unspecified) | 103 to 111
CC(S(=O)(=O)c1ccc(OC(F)(F)F)cc1)S(=O)(=O)C(F)(F)F (stereo unspecified) | 77 to 80
O=C(C[C@H](NC(=O)c1ccccc1)C(=O)O)c1ccc2oc3ccccc3c2c1 | 124 to 130
CN1CCC(=C2c3ccccc3CCc3ccc(CO)cc32)CC1 | 178 to 181
CCc1ncnc(Sc2ccc(Cl)cc2)c1F | 44.1 to 45.5
CC1(C)C=C(N2CCNCC2=O)c2cnccc2O1 | 109 to 110
CCCCCc1cnc(-c2ccc(-c3ccc(C#N)cc3)cc2)nc1 | 124
Cn1cc(-c2nn(-c3cccc(C(F)(F)F)c3)ccc2=O)c(-c2ccccc2)n1 | 181 to 183
Cc1cc(Cl)cc(C(=O)Nc2cccc(Cl)n2)n1 | 176
CN(OCc1ccccc1)C(=O)Nc1cccc(S(C)(=O)=O)c1 | 110 to 111
CCN(CC)OC(C(=O)O)(C(=O)O)c1ccccc1 | > 250
Nc1ccc(CCC(=O)Nc2ccc(Cl)cc2Cl)cc1N | 149 to 150
COc1ccc(CCNC(=O)C2CCC2)cc1 | 118 to 120
Nc1cccc(Oc2ccc(C(=O)c3ccc(C(=O)c4ccc(Oc5cccc(N)c5)cc4)cc3)cc2)c1 | 161 to 163

Compound | melting point [°C]
CC(C)(c1ccccc1)c1ccc2nc(-c3ccc(C(F)(F)F)cc3)oc(=O)c2c1 | 104 to 105
Cc1nc(N2CCN(Cc3ccc(F)cc3)C2=O)sc1C(=O)NCc1cccnn1 | 222 to 225
COc1cccc(Cc2nnc(NCCSCc3nccs3)[nH]c2=O)c1 | 128 to 129
CCC(O)c1cc2c(=O)n(NS(C)(=O)=O)c(=O)[nH]c2cc1C(F)(F)F (stereo unspecified) | 219 to 222
CCOC(=O)c1c[nH]c2c(cc(Cl)c3c(=O)c(C(=O)OCC)c[nH]c32)c1=O | 285 to 288
COc1ccc(-c2nnc3c4ccccc4c(Nc4cccc(C(=O)Nc5ccc(N(C)C)cc5)c4)nn23)cc1 | 314 to 318
c1ccc(-c2nnc3cc(N4CCOCC4)c(OCc4ccccn4)nn23)cc1 | 214
COC(CCNC(=O)C(F)(F)F)(c1ccccc1)c1ccccc1 | 108 to 110
CC(=O)OC1CC(n2cc(C=CBr)c(=O)[nH]c2=O)OC1C(O)F (stereo unspecified) | 81
O=C(O)c1cccnc1C(=O)c1ccccc1 | 115 to 121
CC(=O)Nc1cc(C(C)(C)C)cc(OCc2ccccc2)c1C | 170 to 172
O=C1C(c2ccccc2)=C(c2ccccc2)C(=O)N1c1ccc(Cl)cc1 | 198 to 199
CCN(CC)C1CCN(c2cccc(-c3cnn4c(N)c(-c5cccc(Cl)c5)c(C)nc34)c2)CC1 | 163 to 168
COc1ccc(-c2cc3cc(F)c(F)cc3[nH]2)cc1NS(C)(=O)=O | 254 to 256
O=C(Nc1ccccc1S(=O)(=O)c1ccccc1)N[C@@H](Cc1ccc(Oc2nccc3cnccc23)cc1)C(=O)O | 136
CCCCc1oc2ccc(-c3nc(C)no3)cc2c1C(=O)c1ccc(O)cc1 | 180 to 182
CNc1cc(OC)c(OC)cc1C(C)=O | 121 to 124
CC(C)CNc1nc2c(n1C)C(=O)N1CCN=C1N2Cc1ccc(Cl)cc1 | 185 to 187
Cc1cc(CNC(=O)c2cc(-c3ccc(-c4ccccc4C)cc3)nn2C)ccc1OC(C)(C)C(=O)O | 90 to 100
Nc1nc(Cl)cc(NCC2CC2(Cl)Cl)n1 (stereo unspecified) | 78 to 79
CCOC(=O)N1CCc2nc(-c3ccncc3)cc(=O)n2CC1 | 191 to 193
COc1cccc(-c2c3c(cc4ccc(O)cc24)-c2ccc(O)cc2CO3)c1 | 220 to 223
CCCCNC(=S)c1ccc2c(c1)N(C(C)CN(C)C)c1ccccc1S2 (racemic) | 154
O=C1c2ccccc2-c2cc(O)cc3ccc(O)c1c23 | 280

Compound | melting point [°C]
CC1(N2C(=O)c3ccccc3S2(=O)=O)CCCNC1=O (stereo unspecified) | 211 to 215
CNC(=O)OCc1c(COC(=O)NC)c2n(c1C)Cc1ccccc1C2 | 174 to 176
Cc1ccc(-n2cccc2-c2ccc(S(C)(=O)=O)cc2)cc1 | 112 to 114
CC(C)(C)OC(=O)N(O)C(=O)CN | 115 to 117
Nc1ccccc1N1CCN(CC(O)COc2cccc3c2CCCC3)CC1 (stereo unspecified) | 103 to 104
CCCCn1c(=O)c2[nH]cnc2n(CCCC)c1=S | 137
CNc1cnc(-c2cccnc2)s1 | 141 to 146
CCCCn1c(O)nc2c(N)ncnc21 | 222 to 224
CCOC(=O)CNC(=O)CN(C(=O)c1ccc(Cl)cc1)c1c(C)cccc1C | 127 to 129
COC(=O)c1ccc2nc3n(c(=O)c2c1)CCC3=Cc1ccccc1 | 224 to 227
CCOC(=O)CCC(C=Cc1ccc(OC)c(OC)c1)=C1SC(=S)NC1=O | 178 to 180
O=C=NCCC12CCCn3c1c(c1ccccc13)CCO2 (stereo unspecified) | 89 to 91
N=C(Nc1cc(Cl)cc(NC(=O)/C=C/c2ccccc2C(F)(F)F)c1)c1cccs1 | 178 to 179
CS(=O)(=O)c1ccc(-c2cnn(-c3cccc(S(C)(=O)=O)c3)c(=O)c2-c2ccc(F)cc2)cc1 | 141 to 142
COc1cc(Nc2c(C#N)cnc3cc(OCc4cccs4)c(OC)cc23)c(Cl)cc1Cl | 194 to 196
COc1ccc(CC(C#N)=CNc2ccccc2)c2ccccc12 | 188 to 189
COC(=O)[C@@H]1[C@H](C(C)C)N1S(=O)(=O)c1ccc(C)cc1 (stereo partly specified) | 52 to 54
COc1cc(-c2c(Cl)c(CNC(C)(C)C)nc3sc4c(c23)CCN(C(=O)c2ccccc2)C4)ccc1OC(C)C | 165 to 166
CCCCCNc1c(C(=O)OCC)cnc2cn[nH]c12 | 153 to 155
O=C(O)CCNC(=O)C1=C(C(=O)Nc2ccc(Cl)cc2F)CCCC1 | 158 to 159
CC(=O)Nc1ccc(C(=O)N2CC3CC(CN(Cc4ccccc4)C3)C2)cc1 | 208
O=C1N[C@H](C(=O)O)Cc2cc(O)c(O)cc21 | 268 to 272
CCOC(=O)c1c(C)nn(C)c1S(=O)(=O)N=c1nc2nc(C)cc(C)n2s1 | 167 to 168
